From patent publication US11786597B2, “Ionic liquids for transdermal drug delivery” (priority 2013, dated 2023)
Read-outs that look alike come from different tables or passages of the source. Marks after values point to notes of the source that are not given here.

How the values were obtained:
porcine skin [1] = test: Skin transport of 3H-Mannitol in Franz diffusion cell; format: in vitro ADME
Description: (§1) FIG. 1 is a schematic of the skin transport experiment set-up and analysis. Porcine skin was loaded into the Franz diffusion cell (FDC) with the stratum corneum (SC) facing up. Skin was incubated in contact with 3H-labeled drug dissolved in donor solution for 24 hrs, at 37° C., with stirring. After 24 hrs the donor solution was removed and skin thoroughly washed. The SC was separated from the epidermis by tape stripping. Ten tape strips were applied, each tape corresponding to 1 “layer” of SC. Ten tape strips were assumed to remove the entire SC. Epidermis was separated from dermis using a razor blade. Acceptor solution was collected, and drug transport into various tissue layers was quantified by scintillation counter.
3H-labeled Mannitol and Cefadroxil were obtained from American Radiolabeled Chemicals, Inc. and Moravek, respectively. FDCs were used to assess the transport enhancement of ionic liquids using a previously established protocol. Karande, et al., “Discovery of transdermal penetration enhancers by high-throughput screening”, Nat Biotechnol, 22(2): 192-7 (2004). Briefly, the acceptor chamber was filled with degassed PBS and a small stir bar added. Thawed porcine skin was clamped in place between the acceptor and donor chambers with the SC facing up. Care was taken to ensure no air bubbles resided in the acceptor chamber. Ionic liquids or PBS (control) were spiked with 3H-labeled drug (Mannitol and Cefadroxil) to a final concentration of 10 μCi/ml. 300 μL of donor solution was added to the donor chamber and incubated in contact with the SC for 24 hr, at 37° C., with stirring.
After 24 hr, the donor solution was removed, and the skin was thoroughly washed and dried.
SC was separated from epidermis by tape stripping. Ten tape strips were performed in an identical fashion, with each tape corresponding to 1 SC “layer”. Ten strips were assumed to remove the majority of the SC. Epidermis was separated from dermis with a razor blade, and the acceptor solution was collected from the acceptor chamber. Samples from each tissue layer and acceptor solution were dissolved in Soluble (Perkin Elmer, Waltham, MA) overnight and the concentration of radiolabeled solute was measured using a scintillation counter (Packard Tri-Carb 2100 TR, Meriden, CT).

[2] = Viscosity (Viscolab 3000 viscometer); format: physicochemical
Description: Viscosity was measured on 1 mL samples with a Viscolab 3000 viscometer (Cambridge Viscosity, Medford, MA). […] Low-temperature differential scanning calorimetry (DSC) was performed on a DSC882e instrument (Mettler-Toledo Inc., Columbus, Ohio) under N2 atmosphere over two complete scans of a temperature range of −60 to 120° C. with a ramp rate of 10° C. per minute and a sample size of 18-21 mg in an aluminum crucible.

[3] = Solubility in water (physical characterization); conditions: 25° C.
[4] = tested on: Normal human bronchial epithelial (NHBE) cells; test: WST-1 proliferation assay, 24 h exposure to diluted ILs; conditions: solubilized in culture medium
Description: Normal human bronchial epithelial (NHBE) cells were purchased (Lonza, Walkersville, MD) and cultured using bronchial epithelial cell growth media (BEGM, Clonetics Bullet Kit, Lonza, Walkersville, MD) on 100 mm tissue culture treated Petri dishes (Santa Cruz Biotechnologies, Santa Cruz, CA) coated with 50 μg/mL type I rat tail collagen (BD Biosciences, Bedford, MA). Cells were stored in an incubator with a humidified atmosphere at 37° C. and 5% CO2. Cells were fed two times weekly and passaged via trypsinization. Experimentation was performed in triplicate on cells harvested from passages 3 to 7.
NHBE cells were plated in 96-well tissue culture plates at a concentration of 1.5×10^4 cells/well in a volume of 200 μL and allowed to acclimate overnight. On the day of experimentation, treatment plates were prepared using stock ionic liquid diluted in BEGM and then serially diluted 3-fold for a total of 7 concentrations. The 96-well plates containing cells were then aspirated and the treatments (150 μL/well) were carefully transferred from the prep plate to the cells. Cells were exposed to the ionic liquids for 24 hours. Two hours prior to the end of the exposure time, positive control cell wells were aspirated, and a solution of 1% Triton-100 (150 μL/well) was added.
To assess cellular proliferation, water-soluble tetrazolium (WST-1) reagent (Clontech, Mountain View, CA) was added directly to cells, at a 1:10 dilution of the remaining media volume (7.5 μL of WST-1 reagent was added per 75 μL remaining cell culture media). NHBE cells exposed to media only and 1% Triton in BEGM were included as controls. Ionic liquid controls at the highest concentrations tested were included in wells without cells to rule out ionic liquid/assay reagent interference.

Conductivity of neat IL = format: physicochemical
Description: (§2) Determinations of conductivity were made on an ION450 benchtop meter (Radiometer Analytical) with a 2-pole electrode designed for use in viscous liquids (Radiometer Analytical CDC241-9) and calibrated with KCl. Conductivity was measured three times per sample on stirred 3 mL volumes of neat IL at 25° C. Density was measured three times per IL using a 1 mL volumetric flask and an analytical balance.

[5] = Determination of lipophilicity (octanol/water distribution by UV absorbance); format: physicochemical; conditions: for percent in octanol: after extraction with water
Description: A 250 mL volume of n-octanol was shaken with 100 mL of ddH2O and left overnight. […]
The absorption of the octanol layer and water layers were measured and compared with the absorbance of the stock solutions. Measurements were repeated three times and the distribution coefficients were reported as the average. The percent of IL in octanol was calculated as the absorbance of the octanol layer after extraction divided by the absorbance of IL in octanol before extraction. The water/octanol distribution coefficient was calculated as the logarithm of the percent of IL in octanol divided by the percent of IL in water.

[6] = Abbott et al. 2006; cited from earlier work
[7] = Density (volumetric flask and balance); format: physicochemical
Description: as §2

[8] = Calculations of molarity and ionic strength; format: physicochemical; conditions: neat IL, Table 5
porcine skin [9] = test: Skin transport of 3H-Cefadroxil in Franz diffusion cell; format: in vitro ADME; conditions: spiked with Cefadroxil
Description: as §1
3H-labeled Mannitol and Cefadroxil were obtained from American Radiolabeled Chemicals, Inc. and Moravek, respectively. FDCs were used to assess the transport enhancement of ionic liquids using a previously established protocol. Karande, et al., “Discovery of transdermal penetration enhancers by high-throughput screening”, Nat Biotechnol, 22(2): 192-7 (2004). […]
SC was separated from epidermis by tape stripping. […] Samples from each tissue layer and acceptor solution were dissolved in Soluble (Perkin Elmer, Waltham, MA) overnight and the concentration of radiolabeled solute was measured using a scintillation counter (Packard Tri-Carb 2100 TR, Meriden, CT).

Row | Compound | viscosity ([2]; 25° C.) | viscosity ([2]; Table 5) | conductivity (Conductivity of neat IL; 25° C.) | conductivity (Conductivity of neat IL; Table 5) | percent in octanol ([5]; Table 3) | density ([7]; 25° C.) | density ([7]; Table 5) | ionic strength [8] | molarity [8] | also measured
1 | C[N+](C)(C)CCO.NC(N)=O.NC(N)=O.[Cl-] [LANL-6, urea-choline] | 1390 cP | 1386^a cP | 0.580 mS/cm | 0.580^a mS/cm | 24 +/− 8% | 1.21 g/mL | 1.21 g/mL | 2.32 M | 4.65 M | drug permeation into the SC (porcine skin [1]; 3H-Mannitol, 24 hr, 37° C.): inhibited drug permeation into the SC; viscosity at 40° C. ([2]; 40° C.): 170 cP; viscosity ([2]; text b171): 1390 cP; solubility in water [3]: miscible; toxicity to human primary cells [4]: low toxicity; partitioning into octanol [5]: partitioned poorly into octanol; log Po/w ([5]; octanol/water, Table 3): −0.51; viscosity, literature value at 40° C. [6]: 169 cP
2 | choline geranate [LANL-21] | 1345 cP | 1345 cP | 0.0431 mS/cm | 0.0431 mS/cm | 66 +/− 3% | 0.990 g/mL | 0.990 g/mL | 3.39 M | 2.26 M | loss/partitioning of solute to the acceptor solution (porcine skin [1]; 3H-Mannitol): enhanced partitioning into the acceptor solution; transport enhancement into/through all layers of the skin (porcine skin [1]; 3H-Mannitol, relative to PBS control): 5-15 fold; skin transport properties (porcine skin [1]; materials in lower right portion of Walden plot): best skin transport properties; conductivity (Conductivity of neat IL; text b172): 0.04 mS/cm; partitioning into the dermis and acceptor solution versus control (PBS) (porcine skin [9]): 15-20 times; log Po/w [5]: 0.28
